From patent US20260262643A1, “HERBICIDAL BENZOXAZINES” (FMC CORPORATION, priority 2022, published 2026)

Experiments:
[1] = test system: ducksalad; assay: Test D flooded paddy test; type: in vivo, Heteranthera limosa; details: 250 g ai/ha, applied to paddy water, visual rating after 13 to 14 days, scale 0 to 100 (0 no effect, 100 complete control)
Outline: (§1)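 Post-flood water application at the 2-leaf stage; 3 cm flood depth kept constant; visual control rating 0–100 after 13–14 days greenhouse growth.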

[2] = test system: sedge, umbrella; assay: Test D flooded paddy test; type: in vivo, Cyperus difformis; details: 250 g ai/ha, applied to paddy water, visual rating after 13 to 14 days, scale 0 to 100 (0 no effect, 100 complete control)
Outline: as §1

[3] = test system: wheat; assay: Test C postemergence; type: in vivo, Triticum aestivum; details: 10 days
Outline: (§2)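 Greenhouse herbicide screen, 10-day duration. Test chemicals in solvent/surfactant blend were sprayed onto soil at sowing (pre) or onto 2–10 cm seedlings at one to two leaves (post); injury scored visually against controls, 0 no effect to 100 complete control.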

[4] = test system: green foxtail; assay: Test C preemergence; type: in vivo, Setaria viridis; details: for Plant response rating, Foxtail, Green: Preemergence; for Foxtail, Green plant response rating: preemergence
Outline: as §2

[5] = test system: kochia; assay: Test C postemergence; type: in vivo, Bassia scoparia; details: 10 days
Outline: as §2

[6] = test system: soybean; assay: Test C preemergence; type: in vivo, Glycine max; details: for Plant response rating, Soybean: Preemergence; for Soybean plant response rating: preemergence
Outline: as §2

[7] = test system: ragweed; assay: Test C preemergence; type: in vivo, Ambrosia artemisiifolia; details: for Plant response rating, Ragweed: Preemergence; for Ragweed plant response rating: preemergence
Outline: as §2

[8] = test system: corn; assay: Test C postemergence; type: in vivo, Zea mays; details: 10 days
Outline: as §2

[9] = test system: barnyardgrass; assay: Test D flooded paddy test; type: in vivo, Echinochloa crus-galli; details: 250 g ai/ha, applied to paddy water, visual rating after 13 to 14 days, scale 0 to 100 (0 no effect, 100 complete control)
Outline: as §1

[10] = test system: soybean; assay: Test C postemergence; type: in vivo, Glycine max; details: 10 days
Outline: as §2

[11] = test system: ryegrass, Italian; assay: Test C preemergence; type: in vivo, Lolium multiflorum; details: for Plant response rating, Ryegrass, Italian: Preemergence; for Ryegrass, Italian plant response rating: preemergence
Outline: as §2

[12] = test system: pigweed, palmer; assay: Test C preemergence; type: in vivo, Amaranthus palmeri; details: for Plant response rating, Pigweed, Palmer: Preemergence; for Pigweed, Palmer plant response rating: preemergence
Outline: as §2

[13] = test system: ragweed; assay: Test C postemergence; type: in vivo, Ambrosia artemisiifolia; details: 10 days
Outline: as §2

[14] = test system: corn; assay: Test C preemergence; type: in vivo, Zea mays; details: for Plant response rating, Corn: Preemergence; for Corn plant response rating: preemergence
Outline: as §2

[15] = test system: blackgrass; assay: Test C postemergence; type: in vivo, Alopecurus myosuroides; details: 10 days
Outline: as §2

[16] = test system: barnyardgrass; assay: Test C postemergence; type: in vivo, Echinochloa crusgalli; details: 10 days
Outline: as §2

[17] = test system: barnyardgrass; assay: Test C preemergence; type: in vivo, Echinochloa crusgalli; details: for Plant response rating, Barnyardgrass: Preemergence; for Barnyardgrass plant response rating: preemergence
Outline: as §2

[18] = test system: pigweed, palmer; assay: Test C postemergence; type: in vivo, Amaranthus palmeri; details: 10 days
Outline: as §2

[19] = test system: oat, wild; assay: Test C postemergence; type: in vivo, Avena fatua; details: 10 days
Outline: as §2

[20] = test system: horseweed; assay: Test C postemergence; type: in vivo, Erigeron canadensis; details: 10 days
Outline: as §2

[21] = test system: oat, wild; assay: Test C preemergence; type: in vivo, Avena fatua; details: for Plant response rating, Oat, Wild: Preemergence; for Oat, Wild plant response rating: preemergence
Outline: as §2

[22] = test system: wheat; assay: Test C preemergence; type: in vivo, Triticum aestivum; details: for Plant response rating, Wheat: Preemergence; for Wheat plant response rating: preemergence
Outline: as §2

[23] = test system: rice; assay: Test D flooded paddy test; type: in vivo, Oryza sativa; details: 250 g ai/ha, applied to paddy water, visual rating after 13 to 14 days, scale 0 to 100 (0 no effect, 100 complete control)
Outline: as §1

[24] = test system: galium; assay: Test C postemergence; type: in vivo, Galium aparine; details: 10 days
Outline: as §2

[25] = test system: blackgrass; assay: Test C preemergence; type: in vivo, Alopecurus myosuroides; details: for Plant response rating, Blackgrass: Preemergence; for Blackgrass plant response rating: preemergence
Outline: as §2

[26] = test system: ryegrass, Italian; assay: Test C postemergence; type: in vivo, Lolium multiflorum; details: 10 days
Outline: as §2

[27] = test system: green foxtail; assay: Test C postemergence; type: in vivo, Setaria viridis; details: 10 days
Outline: as §2

[28] = test system: kochia; assay: Test C preemergence; type: in vivo, Bassia scoparia; details: for Plant response rating, Kochia: Preemergence; for Kochia plant response rating: preemergence
Outline: as §2

[29] = 125 g ai/ha, postemergence, 0 to 100 scale, 0 no effect, 100 complete control
[30] = Postemergence, 500 g ai/ha, visual 0 to 100 scale (0 no effect, 100 complete control)
[31] = 500 g ai/ha, visual rating after 10 days, 0 to 100 scale (0 no effect, 100 complete control)
[32] = Test C, 125 g ai/ha, 0 to 100 scale (0 no effect, 100 complete control)
[33] = 500 g ai/ha, postemergence, 0 to 100 scale (0 no effect, 100 complete control)
[34] = Postemergence, 125 g ai/ha, 0 to 100 scale (0 no effect, 100 complete control)
[35] = 500 g ai/ha, 0 to 100 scale (0 no effect, 100 complete control)
[36] = 125 g ai/ha, 0 to 100 scale, 0 no effect, 100 complete control

Structure (SMILES): CC(C)n1cnc(-c2cccc(C(=O)N3C[C@H](C)Oc4c(Cl)cccc43)c2)n1 [Compound 172]
- Plant response rating, Ducksalad (Flood) [1]: 0
- Plant response rating, Sedge, Umbrella (Flood) [2]: 0
- Plant response rating, Wheat [3, 29]: 0
- Plant response rating, Wheat [3, 30]: 0
- Plant response rating, Foxtail, Green [4, 31]: 0
- Foxtail, Green plant response rating [4, 32]: 0
- Plant response rating, Kochia [5, 29]: 0
- Plant response rating, Kochia [5, 30]: 30
- Plant response rating, Soybean [6, 31]: 0
- Soybean plant response rating [6, 32]: 0
- Plant response rating, Ragweed [7, 31]: 0
- Ragweed plant response rating [7, 32]: 0
- Plant response rating, Corn [8, 29]: 0
- Plant response rating, Corn [8, 30]: 0
- Plant response rating, Barnyardgrass (Flood) [9]: 0
- Plant response rating, Soybean [10, 29]: 0
- Plant response rating, Soybean [10, 30]: 0
- Plant response rating, Ryegrass, Italian [11, 31]: 20
- Ryegrass, Italian plant response rating [11, 32]: 0
- Plant response rating, Pigweed, Palmer [12, 31]: 0
- Pigweed, Palmer plant response rating [12, 32]: 0
- Plant response rating, Ragweed [13, 29]: 0
- Plant response rating, Ragweed [13, 30]: 0
- Plant response rating, Corn [14, 31]: 0
- Corn plant response rating [14, 32]: 0
- Plant response rating, Blackgrass [15, 29]: 0
- Plant response rating, Blackgrass [15, 30]: 0
- Plant response rating, Barnyardgrass [16, 29]: 0
- Plant response rating, Barnyardgrass [16, 30]: 0
- Plant response rating, Barnyardgrass [17, 31]: 0
- Barnyardgrass plant response rating [17, 32]: 0
- Plant response rating, Pigweed, Palmer [18, 29]: 0
- Plant response rating, Pigweed, Palmer [18, 30]: 0
- Plant response rating, Oat, Wild [19, 29]: 0
- Plant response rating, Oat, Wild [19, 30]: 0
- Plant response rating, Horseweed [20, 29]: 0
- Plant response rating, Horseweed [20, 30]: 0
- Plant response rating, Oat, Wild [21, 31]: 0
- Oat, Wild plant response rating [21, 32]: 0
- Plant response rating, Wheat [22, 31]: 0
- Wheat plant response rating [22, 32]: 0
- Plant response rating, Rice (Flood) [23]: 0
- Plant response rating, Galium [24, 29]: 0
- Plant response rating, Galium [24, 30]: 0
- Plant response rating, Blackgrass [25, 31]: 0
- Blackgrass plant response rating [25, 32]: 0
- Plant response rating, Ryegrass, Italian [26, 29]: 0
- Plant response rating, Ryegrass, Italian [26, 30]: 0
- Plant response rating, Foxtail, Green [27, 29]: 0
- Plant response rating, Foxtail, Green [27, 30]: 0
- Plant response rating, Kochia [28, 31]: 0
- Kochia plant response rating [28, 32]: 0

Structure (SMILES): CC(C)(C)c1ncn(-c2cccc(C(=O)N3CC(C(F)(F)F)Oc4c(Cl)cccc43)c2)n1 (centres unmarked) [Compound 353]
- Plant response rating, Ducksalad (Flood) [1]: 0
- Plant response rating, Sedge, Umbrella (Flood) [2]: 0
- Plant response rating, Wheat [3, 33]: 20
- Plant response rating, Wheat [3, 34]: 20
- Foxtail, Green plant response rating [4, 35]: 100
- Plant response rating, Foxtail, Green [4, 36]: 90
- Plant response rating, Kochia [5, 33]: 70
- Plant response rating, Kochia [5, 34]: 60
- Soybean plant response rating [6, 35]: 40
- Plant response rating, Soybean [6, 36]: 20
- Ragweed plant response rating [7, 35]: 0
- Plant response rating, Ragweed [7, 36]: 0
- Plant response rating, Corn [8, 33]: 10
- Plant response rating, Corn [8, 34]: 10
- Plant response rating, Barnyardgrass (Flood) [9]: 0
- Plant response rating, Soybean [10, 33]: 80
- Plant response rating, Soybean [10, 34]: 80
- Ryegrass, Italian plant response rating [11, 35]: 90
- Plant response rating, Ryegrass, Italian [11, 36]: 80
- Pigweed, Palmer plant response rating [12, 35]: 100
- Plant response rating, Pigweed, Palmer [12, 36]: 90
- Plant response rating, Ragweed [13, 33]: 60
- Plant response rating, Ragweed [13, 34]: 50
- Corn plant response rating [14, 35]: 10
- Plant response rating, Corn [14, 36]: 10
- Plant response rating, Blackgrass [15, 33]: 30
- Plant response rating, Blackgrass [15, 34]: 0
- Plant response rating, Barnyardgrass [16, 33]: 30
- Plant response rating, Barnyardgrass [16, 34]: 10
- Barnyardgrass plant response rating [17, 35]: 70
- Plant response rating, Barnyardgrass [17, 36]: 20
- Plant response rating, Pigweed, Palmer [18, 33]: 100
- Plant response rating, Pigweed, Palmer [18, 34]: 90
- Plant response rating, Oat, Wild [19, 33]: 0
- Plant response rating, Oat, Wild [19, 34]: 0
- Plant response rating, Horseweed [20, 33]: 0
- Plant response rating, Horseweed [20, 34]: 20
- Oat, Wild plant response rating [21, 35]: 80
- Plant response rating, Oat, Wild [21, 36]: 30
- Wheat plant response rating [22, 35]: 30
- Plant response rating, Wheat [22, 36]: 10
- Plant response rating, Rice (Flood) [23]: 0
- Plant response rating, Galium [24, 33]: 90
- Plant response rating, Galium [24, 34]: 70
- Blackgrass plant response rating [25, 35]: 50
- Plant response rating, Blackgrass [25, 36]: 0
- Plant response rating, Ryegrass, Italian [26, 33]: 40
- Plant response rating, Ryegrass, Italian [26, 34]: 20
- Plant response rating, Foxtail, Green [27, 33]: 40
- Plant response rating, Foxtail, Green [27, 34]: 20
- Kochia plant response rating [28, 35]: 70
- Plant response rating, Kochia [28, 36]: 0
